Experiments:
LGC-50 = target: T1, LGC-50 (Caenorhabditis elegans, UniProt P41849); experiment: Two-electrode voltage clamp, agonist-evoked currents in Xenopus oocytes expressing LGC-50; type: cell-based, C. elegans
T1 construct: lgc-50 ORF F […]; expressed in transfected cells; host or cells: Xenopus laevis oocytes injected with cRNA (plasmid pJML002, KSM: lgc-50 cDNA)
T1 sequence (P41849 20-491): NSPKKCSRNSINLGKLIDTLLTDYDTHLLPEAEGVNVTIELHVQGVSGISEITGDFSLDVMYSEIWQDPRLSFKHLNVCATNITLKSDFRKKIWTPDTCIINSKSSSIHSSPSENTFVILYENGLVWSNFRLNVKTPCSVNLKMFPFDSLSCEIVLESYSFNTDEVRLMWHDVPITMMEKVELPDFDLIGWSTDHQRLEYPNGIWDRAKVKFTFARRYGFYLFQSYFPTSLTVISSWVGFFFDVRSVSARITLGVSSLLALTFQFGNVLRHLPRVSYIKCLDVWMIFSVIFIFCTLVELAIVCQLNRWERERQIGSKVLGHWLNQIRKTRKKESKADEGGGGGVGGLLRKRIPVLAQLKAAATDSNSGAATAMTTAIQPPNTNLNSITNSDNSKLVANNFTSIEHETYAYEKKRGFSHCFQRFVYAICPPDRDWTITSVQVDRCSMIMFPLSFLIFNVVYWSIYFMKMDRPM
Text: We aimed to deorphanize C. elegans LGICs without known ligands, focusing on 5 genes in the putative monoamine-gated group: lgc-50; lgc-51; lgc-52; lgc-54; and lgc-56 (previously named ggr-3). Using heterologous overexpression in Xenopus oocytes and two-electrode voltage clamp recordings, we measured channel activity evoked by application of 11 monoamines and other neurotransmitters.
Defolliculated Xenopus laevis oocytes were obtained from EcoCyte Bioscience (Dortmund, Germany) and maintained in ND96 (in mM: 96 NaCl, 1 MgCl2, 5 HEPES, 1.8 CaCl2, 2 KCl) solution at 16°C for 3-5 days.
5'-capped cRNA was synthesized in vitro using the T3 mMessage mMachine transcription kit according to manufacturer’s protocol (Thermo Fischer Scientific, CA, USA). RNA was then purified using the GeneJET RNA purification kit (Thermo Fischer Scientific, CA, USA) prior to cRNA injection. […]
(§1) Two-electrode voltage clamp recordings were carried out using the Robocyte2 recording system or a manual TEVC set up, using an OC-725D amplifier (Multi Channel Systems, Reutlingen, Germany) and paired with a custom-made recording chamber and agar bridges from reference and bath electrodes. […] Data was recorded using WinWCP or RoboCyte2 control software, manual data was filtered at 10 Hz.
Dose response curves were calculated from the peak current during a 10 s agonist stimulation in ND96 solution, with a 60 s ND96 wash in between doses. […] Normalized dose response data was fitted to a nonlinear curve using a four parameters variable slope and the EC50 and Hill slope was calculated. […] Ion selectivity was determined using a voltage ramp protocol of 20mV/s ranging from −80mV to +60mV in the presence or absence of the primary agonist in three different solutions: ND96, NMDG (Na^+ free) and Na Gluconate (low Cl^-) solutions. […] Antagonist dose response curves were calculated from the peak current during a 10 s agonist + antagonist stimulation in ND96 solution, with the agonist concentration remaining constant. […] Kinetic measurements were calculated from a 60 s agonist perfusion. […]

[1] = target: T2, LGC-50 S335D, T348D, S353A (Caenorhabditis elegans, UniProt P41849, S335D/S353A/); experiment: Two-electrode voltage clamp, 5-HT evoked dose response, LGC-50 phosphomimic mutant; type: cell-based, C. elegans
T2 construct: Plasmid: KSM: lgc-50 (cDNA, S335D, T348A, S353A); expressed in transfected cells; host or cells: Xenopus laevis oocytes injected with cRNA (probably plasmid pIH134)
T2 sequence (P41849 20-491 S335D/T348A/S353A): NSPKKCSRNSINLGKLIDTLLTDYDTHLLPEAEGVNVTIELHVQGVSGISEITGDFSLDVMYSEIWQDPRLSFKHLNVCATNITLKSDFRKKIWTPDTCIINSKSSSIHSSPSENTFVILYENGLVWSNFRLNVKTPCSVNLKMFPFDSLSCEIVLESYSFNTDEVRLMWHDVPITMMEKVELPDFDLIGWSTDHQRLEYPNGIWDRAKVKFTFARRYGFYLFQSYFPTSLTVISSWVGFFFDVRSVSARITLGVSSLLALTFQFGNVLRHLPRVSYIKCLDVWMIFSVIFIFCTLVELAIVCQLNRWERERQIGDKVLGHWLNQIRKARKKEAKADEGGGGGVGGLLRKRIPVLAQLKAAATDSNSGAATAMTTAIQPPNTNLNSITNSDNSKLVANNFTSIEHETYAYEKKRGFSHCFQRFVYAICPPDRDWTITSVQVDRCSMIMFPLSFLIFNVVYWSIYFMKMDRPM
Text: In addition to this region, we also investigated three upstream predicted phosphorylation sites. Phosphorylation of the M3/4 loop has previously been implicated in the trafficking and cell surface recycling of GABAA receptors.[23]^,[24] The first site in the M3/4 loop of LGC-50, S335, is predicted to be a cdc2 site, and T348 and S353 are predicted protein kinase C (PKC) or PKA sites (Table S2).[25]^,[26] We introduced both phosphorylation-dead alanine mutations and phosphomimic aspartate mutations into these sites to assess their effect on receptor trafficking. […]
as §1
Dose response curves were calculated from the peak current during a 10 s agonist stimulation in ND96 solution, with a 60 s ND96 wash in between doses. […] Normalized dose response data was fitted to a nonlinear curve using a four parameters variable slope and the EC50 and Hill slope was calculated. […] Kinetic measurements were calculated from a 60 s agonist perfusion. […]

SMILES: NCCc1c[nH]c2ccc(O)cc12 [5-HT, serotonin]
- EC50 (LGC-50; Xenopus oocytes, TEVC, current normalized to Imax, Hill equation with variable slope, read-out: EC50, agonist-evoked dose response, LGC-50): 940 nM
- Channel gating in ligand screen, LGC-50 (LGC-50; ligands screened at 100 μM, oocytes clamped at −60 mV): gated
- EC50 [1]: 720 nM
